In patent US20230312550A1, “N-(2-(4-CYANOTHIAZOLIDIN-3-YL)-2-OXOETHYL)-QUINOLINE-4-CARBOXAMIDES” (AstraZeneca AB, priority 2020, published 2023):
Values after ≈ are worked out from the molar mass of the structure shown.

Experiments:
FAP [1] = biological target: FAP (Homo sapiens (Human), UniProt Q12884); experiment: hFAP inhibition assay; assay type: biochemical; conditions: Ala-Pro-AMC 20 μM, n = 1 or geometric mean n = 2-3
How it was run: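 Compounds (10-point, 3-fold dilutions from 50 μM top) were preincubated 15 min at rt in the dark with 0.48 nM hFAP in pH 7.4 Tris/NaCl/Chaps buffer. Reaction was started with substrate (40 μM solution) and ran 30 min at rt. Read by fluorescence (340/460 nm); IC50 from one-site fit.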

[2] = Metabolic stability in rat hepatocytes (rHep); conditions: n = 1 or geometric mean of n = 2-3
[3] = Metabolic stability in human liver microsomes (HLM); conditions: human, HLM CLint, n = 1 or average of n = 2-3
Procedure: Metabolic stability in HLM was measured as described in J Comput Aided Mol Des 2015, 29, 795.

[4] = biological target: human Fibroblast activation protein alpha (hFAP) (Homo sapiens (Human), UniProt Q12884); experiment: hFAP inhibition assay (tight binders); assay type: biochemical; conditions: Ala-Pro-AMC 20 μM, n = 1 or geometric mean n = 2-6; note: hFAP 2.4 pM
Procedure: The plates were read on a PHERAstar® reader with excitation 340 nm and emission 460 nm. Data were analyzed in Genedata Screener®. IC50 values were determined by plotting % inhibition versus log compound concentration and using a one site dose response model.

[5] = biological target: Prolyl endopeptidase, Prolyl Oligopeptidase (hPREP) (Homo sapiens (Human), UniProt P48147); experiment: hPrep inhibition assay; assay type: biochemical; conditions: hPREP 0.6 nM, Z-Gly-Pro-amino-methylcoumarin 50 μM; read-out: PREP IC50
How it was run: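 Fluorogenic read-out (340 nm excitation, 460 nm emission) after 20 min at rt, using 50 μM final Z-Gly-Pro-aminomethylcoumarin and 0.6 nM final enzyme, following 15 min compound preincubation. Buffer pH 7.5 with glutathione and Triton X-100. IC50 via one-site model on % inhibition vs log concentration.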

Caco-2 cell permeability = conditions: human
Procedure: Caco-2 cell permeability was measured as described in Mol Pharm 2017, 14, 1601.

Kinetic solubility = conditions: kinetic from dmso stock, Solubility, kinetic solubility; n = 1 or average of n = 2-3
Procedure: Kinetic solubility was measured as described in Comput Aided Mol Des 2015, 29, 795.

hFAP (M39-A757) = hFAP (M39-A757) (Homo sapiens (Human), UniProt Q12884); experiment: hFAP binding assay (surface plasmon resonance); conditions: SPR, 20° C.; for hFAP Binding assay k(off) / hFAP Binding assay k(on): single cycle kinetics; for Kd: n = 1 or geometric mean n = 2-4
Procedure: Compounds were tested in a direct binding assay using 8K surface plasmon resonance biosensor (GE Healthcare) at 20° C. Immobilization of hFAP (M39-A757) on a CMD200M sensor chip (Xantec) was performed using standard amine coupling procedure in immobilization buffer (10 mM HEPES, 150 mM NaCl, 0.05% Tween20, pH 7.4). The surface was washed with 10 mM NaOH, 1M NaCl before being activated with EDC/NHS (GE Healthcare), followed by immobilization of hFAP (in 10 mM Acetate pH 5.0). Finally, the surface was deactivated by ethanolamine. Immobilization levels of hFAP were around 4000-6000 RU. The reference spot was treated as described, omitting the injection of hFAP. Compound concentration series were injected over the immobilized protein in increasing concentrations (2-500 nM) using single cycle kinetics in running buffer (20 mM TRIS, 150 mM NaCl, 0.05% Tween20, 1% DMSO, pH 7.4). Interaction models were fitted globally to the experimental traces, enabling determination of kon, koff and Kd.

FAP [6] = biological target: FAP (Mus musculus (Mouse), UniProt P97321); experiment: FAP plasma inhibition assay, mouse plasma; assay type: biochemical; conditions: mouse plasma diluted 1:67, Ala-Pro-AMC 75 μM
Procedure: This assay was adapted from the method described in Example 237 for detection of FAP target engagement enzyme activity in plasma. Plasma (anticoagulant K2EDTA) was used as the enzyme source: Human plasma (Pooled from AZ Biobank), Mouse plasma (AZ AST Biobank), and Cynomolgus plasma (BioIVT, #NHP00PLK2FNN, lot CYN222895). 384-Well black fluotrack PS plates (Greiner 781076) were used. 20 μL diluted plasma (Cynomolgus and Human plasma dilution 1:40, Mouse plasma dilution 1:67) in buffer (PBS, 0.1% BSA) was added to 0.6 μL compounds (in DMSO). Compounds were tested using 10 CR, 3 fold dilution series from 500 nM FAC. Two replicates for each assay point were run on the same plate. A fluorescence blank read was taken before substrate addition. […] Plates were incubated for 40 min at rt in the dark. […] IC50 values were determined by plotting % inhibition versus log compound concentration.

FAP (Mus musculus (Mouse), UniProt P97321), sequence (P97321 24-761): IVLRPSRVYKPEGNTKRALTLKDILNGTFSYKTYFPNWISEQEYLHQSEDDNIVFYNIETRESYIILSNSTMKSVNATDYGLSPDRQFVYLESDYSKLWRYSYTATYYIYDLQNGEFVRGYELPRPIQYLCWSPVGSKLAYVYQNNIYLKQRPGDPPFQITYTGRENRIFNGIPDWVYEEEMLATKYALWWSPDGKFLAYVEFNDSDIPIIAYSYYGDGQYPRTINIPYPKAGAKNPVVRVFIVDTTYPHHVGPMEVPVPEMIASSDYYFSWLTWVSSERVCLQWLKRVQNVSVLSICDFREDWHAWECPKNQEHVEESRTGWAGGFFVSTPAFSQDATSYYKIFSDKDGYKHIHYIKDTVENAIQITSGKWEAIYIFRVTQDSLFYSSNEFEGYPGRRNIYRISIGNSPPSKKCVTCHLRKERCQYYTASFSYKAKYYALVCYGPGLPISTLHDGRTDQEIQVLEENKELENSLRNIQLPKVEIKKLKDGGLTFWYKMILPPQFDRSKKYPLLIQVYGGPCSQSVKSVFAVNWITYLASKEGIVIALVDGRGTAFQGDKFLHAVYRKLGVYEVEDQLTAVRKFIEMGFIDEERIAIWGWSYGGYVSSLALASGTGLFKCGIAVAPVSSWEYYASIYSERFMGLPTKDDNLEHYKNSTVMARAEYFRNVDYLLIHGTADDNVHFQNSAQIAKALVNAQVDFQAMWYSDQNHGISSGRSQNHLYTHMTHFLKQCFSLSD
hFAP (M39-A757), sequence (Q12884 39-757): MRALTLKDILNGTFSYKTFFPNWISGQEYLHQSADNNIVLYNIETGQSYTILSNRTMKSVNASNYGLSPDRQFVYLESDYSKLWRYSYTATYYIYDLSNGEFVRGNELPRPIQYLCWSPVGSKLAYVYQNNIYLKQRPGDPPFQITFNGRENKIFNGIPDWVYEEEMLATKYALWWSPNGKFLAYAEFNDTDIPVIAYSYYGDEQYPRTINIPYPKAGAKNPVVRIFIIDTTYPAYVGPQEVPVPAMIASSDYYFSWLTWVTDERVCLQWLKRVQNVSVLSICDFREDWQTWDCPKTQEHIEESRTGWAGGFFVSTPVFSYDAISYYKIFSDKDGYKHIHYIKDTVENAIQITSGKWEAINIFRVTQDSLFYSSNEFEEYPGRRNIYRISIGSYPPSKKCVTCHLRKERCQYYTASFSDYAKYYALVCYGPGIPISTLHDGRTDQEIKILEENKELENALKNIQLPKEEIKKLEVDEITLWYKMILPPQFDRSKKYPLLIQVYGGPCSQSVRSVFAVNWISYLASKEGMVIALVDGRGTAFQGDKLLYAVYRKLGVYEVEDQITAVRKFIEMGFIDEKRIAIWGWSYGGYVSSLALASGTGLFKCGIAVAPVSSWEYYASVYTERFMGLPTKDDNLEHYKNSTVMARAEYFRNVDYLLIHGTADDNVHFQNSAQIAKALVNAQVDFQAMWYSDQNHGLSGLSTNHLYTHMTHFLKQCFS
Prolyl endopeptidase, Prolyl Oligopeptidase (hPREP), sequence (P48147 whole entry): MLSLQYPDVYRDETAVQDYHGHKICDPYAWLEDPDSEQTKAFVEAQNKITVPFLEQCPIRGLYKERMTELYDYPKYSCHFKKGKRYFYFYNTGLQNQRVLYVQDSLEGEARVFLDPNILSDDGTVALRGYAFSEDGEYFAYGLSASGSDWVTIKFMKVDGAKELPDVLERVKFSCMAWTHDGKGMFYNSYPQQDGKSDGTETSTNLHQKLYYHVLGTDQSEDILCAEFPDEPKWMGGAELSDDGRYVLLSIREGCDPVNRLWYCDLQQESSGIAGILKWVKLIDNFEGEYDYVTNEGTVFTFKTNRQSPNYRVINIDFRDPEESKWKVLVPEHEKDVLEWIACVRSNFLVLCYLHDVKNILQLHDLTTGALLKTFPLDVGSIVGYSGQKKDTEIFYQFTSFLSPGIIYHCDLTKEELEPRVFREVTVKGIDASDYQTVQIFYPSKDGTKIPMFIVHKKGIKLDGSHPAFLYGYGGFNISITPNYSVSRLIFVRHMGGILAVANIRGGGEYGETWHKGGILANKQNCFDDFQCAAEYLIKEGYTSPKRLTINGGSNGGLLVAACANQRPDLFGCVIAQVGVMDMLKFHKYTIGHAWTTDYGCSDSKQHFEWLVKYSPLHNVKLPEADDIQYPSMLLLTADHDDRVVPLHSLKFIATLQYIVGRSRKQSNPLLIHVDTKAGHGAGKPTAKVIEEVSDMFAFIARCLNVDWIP
human Fibroblast activation protein alpha (hFAP), sequence (Q12884 38-760): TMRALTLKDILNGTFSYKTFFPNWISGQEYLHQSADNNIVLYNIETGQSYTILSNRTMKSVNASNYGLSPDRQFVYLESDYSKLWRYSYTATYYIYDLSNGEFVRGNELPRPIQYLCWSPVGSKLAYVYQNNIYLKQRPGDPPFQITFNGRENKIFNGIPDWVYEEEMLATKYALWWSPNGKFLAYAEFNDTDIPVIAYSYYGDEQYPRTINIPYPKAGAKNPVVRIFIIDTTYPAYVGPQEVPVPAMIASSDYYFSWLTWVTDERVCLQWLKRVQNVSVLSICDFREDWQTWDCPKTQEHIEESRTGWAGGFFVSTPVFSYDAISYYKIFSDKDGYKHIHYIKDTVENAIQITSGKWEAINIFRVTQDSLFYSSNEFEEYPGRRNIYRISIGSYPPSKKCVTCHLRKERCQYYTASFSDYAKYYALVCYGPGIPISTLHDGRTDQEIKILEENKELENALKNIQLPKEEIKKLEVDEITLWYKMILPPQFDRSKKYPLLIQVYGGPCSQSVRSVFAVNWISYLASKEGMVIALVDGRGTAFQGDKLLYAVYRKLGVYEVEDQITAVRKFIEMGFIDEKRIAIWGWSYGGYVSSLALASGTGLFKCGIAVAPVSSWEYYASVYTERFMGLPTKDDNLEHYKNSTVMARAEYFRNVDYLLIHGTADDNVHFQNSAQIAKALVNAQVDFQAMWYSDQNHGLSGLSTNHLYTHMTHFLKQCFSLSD
FAP (Homo sapiens (Human), UniProt Q12884), sequence (Q12884 38-760): as above

Structure (SMILES)	IC50 (FAP [1]; hFAP […]) [nM]	rHep CLint [2] [μL/min/1E6]	microsomal CLint [3] [µL/min/mg]	IC50 [4] [nM]	IC50 [5] [nM]	Papp A→B (Caco-2 cell permeability) [×10⁻⁶ cm/s]	Papp B→A (Caco-2 cell permeability) [×10⁻⁶ cm/s]	efflux ratio (Caco-2 cell permeability)	solubility (Kinetic solubility) [µM]	hFAP Binding assay k(off) (hFAP (M39-A757)) [s⁻¹]	hFAP Binding assay k(on) (hFAP (M39-A757)) [M⁻¹ s⁻¹]	Kd (hFAP (M39-A757)) [nM]	IC50 (FAP [6]) [nM]	IC50 (FAP [1]; hFAP 0.24 nM) [nM]	Papp (Caco-2 cell permeability) [×10⁻⁶ cm/s]
Cc1nc(C)c(-c2ccc3nccc(C(=O)NCC(=O)N4CSC[C@H]4C#N)c3c2)o1 [Example 215, (R)—N-(2-(4-Cyanothiazolidin-3-yl)-2-oxoethyl)-6-(2,4-dimethyloxazol-5-yl)quinoline-4-carboxamide]	0.41	3.9	8	0.12	250	0.48	29	59	350 (≈ 148 µg/mL)	0.00017	1800000	0.095	–	–	–
Cc1ccc(-c2ccc3nccc(C(=O)NCC(=O)N4CSC[C@H]4C#N)c3c2)cn1 [Example 177, (R)—N-(2-(4-Cyanothiazolidin-3-yl)-2-oxoethyl)-6-(6-methylpyridin-3-yl)-quinoline-4-carboxamide]	0.29	7.4	13	0.11	360	1.3	22	17	40 (≈ 16.7 µg/mL)	0.000058	100000	0.56	–	–	–
Cc1ncccc1-c1ccc2nccc(C(=O)NCC(=O)N3CSC[C@H]3C#N)c2c1 [Example 128, (R)—N-(2-(4-Cyanothiazolidin-3-yl)-2-oxoethyl)-6-(2-methylpyridin-3-yl)-quinoline-4-carboxamide]	0.45	11	27	0.24	110	0.57	26	45	960 (≈ 401 µg/mL)	0.00066	5400000	0.15	–	–	–
CC1(F)CN(c2ccc3nccc(C(=O)NCC(=O)N4CSC[C@H]4C#N)c3c2)C1 [Example 24, (R)—N-(2-(4-Cyanothiazolidin-3-yl)-2-oxoethyl)-6-(3-fluoro-3-methyl-azetidin-1-yl)quinoline-4-carboxamide]	–	–	–	–	510	–	–	–	–	0.00048	25000000	–	0.4	–	–
CO[C@H]1CCCN(c2ccc3nccc(C(=O)NCC(=O)N4CSC[C@H]4C#N)c3c2)C1 (mixture of isomers) [Example 41, N-(2-((R)-4-Cyanothiazolidin-3-yl)-2-oxoethyl)-6-((RS)-3-methoxypiperidin-1-yl)quinoline-4-carboxamide]	–	12	30	0.16	640	–	–	–	620	0.000064	680000	0.093	–	0.33	16
CC1(C)CCN(c2ccc3nccc(C(=O)NCC(=O)N4CSC[C@H]4C#N)c3c2)C(=O)O1 [Example 112, (R)—N-(2-(4-Cyanothiazolidin-3-yl)-2-oxoethyl)-6-(6,6-dimethyl-2-oxo-1,3-oxazinan-3-yl)quinoline-4-carboxamide]	–	–	–	–	3600	–	–	–	–	0.00014	440000	–	0.8	–	–
N#C[C@@H]1CSCN1C(=O)CNC(=O)c1ccnc2ccc(-c3cnn(C4CCOCC4)c3)cc12 [Example 173, (R)—N-(2-(4-Cyanothiazolidin-3-yl)-2-oxoethyl)-6-(1-(tetrahydro-2H-pyran-4-yl)-1H-pyrazol-4-yl)quinoline-4-carboxamide]	–	–	–	–	940	–	–	–	–	0.000054	110000	–	0.2	–	–
C[C@@H]1OCCN(c2ccc3nccc(C(=O)NCC(=O)N4CSC[C@H]4C#N)c3c2)[C@H]1C [Example 82, N-(2-((R)-4-Cyanothiazolidin-3-yl)-2-oxoethyl)-6-((2S,3S)-2,3-dimethyl-morpholino)quinoline-4-carboxamide]	–	–	–	–	930	–	–	–	–	0.000071	1400000	–	0.4	–	–
